Data from PMC9054772 (RSC Advances, 2020).

Biological target: T1, HsPKS1 (Huperzia serrata, UniProt A3E7Z7)
T1 sequence (A3E7Z7 1-399): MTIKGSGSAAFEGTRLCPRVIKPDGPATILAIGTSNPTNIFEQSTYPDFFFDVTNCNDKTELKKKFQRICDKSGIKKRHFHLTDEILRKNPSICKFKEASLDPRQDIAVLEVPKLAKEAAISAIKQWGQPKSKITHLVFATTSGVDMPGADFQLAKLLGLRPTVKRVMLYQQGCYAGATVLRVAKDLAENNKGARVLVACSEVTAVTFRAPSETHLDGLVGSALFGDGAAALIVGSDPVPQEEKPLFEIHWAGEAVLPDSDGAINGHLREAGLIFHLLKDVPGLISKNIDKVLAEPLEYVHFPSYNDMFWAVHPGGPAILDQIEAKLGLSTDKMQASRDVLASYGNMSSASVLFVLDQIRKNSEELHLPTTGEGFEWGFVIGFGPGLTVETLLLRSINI
Experiment: product formation by HPLC / LC-MS
Assay type: biochemical
Settings: with malonyl-CoA

CC(C)(COP(=O)(O)OP(=O)(O)OC[C@H]1O[C@@H](n2cnc3c(N)ncnc32)[C@H](O)[C@@H]1OP(=O)(O)O)[C@@H](O)C(=O)NCCC(=O)NCCSC(=O)Cc1ccccn1 [2-pyridylacetyl-CoA]
product formation by HPLC / LC-MS (library screen): Only two type III PKSs (HsPKS1 and HsPKS3) from H. serrata
